Article PMC5421785, “Citrullination only infrequently impacts peptide binding to HLA class II MHC” (PLoS ONE, 2017)
Ends that are not written are not given here.

Columns and labels:
Experiment in all cases: HLA class II peptide binding, inhibition of radiolabeled peptide binding to purified MHC; for IC50 DRB1*01:01: competition with radiolabeled peptide (0.1–1 nM); for IC50 DRB1*04:01: competition with radiolabeled peptide (0.1–1 nM)
DRB1*16:02 = DRB1*16:02 (Homo sapiens, UniProt P01903+P01911, A100R/F76Y/I96L/Q99D/V115G); details: SE-, competition with radiolabeled peptide, two-day incubation, three or more independent experiments
HLA-DRB1*01:01 = target: T1, HLA-DRB1*01:01 (Homo sapiens, UniProt P01903+P01911, A100R/D57E/F55L/F60I/F76Y/I96L/L162R/M171V/P40L/Q125E/R42F/V115G/Y59C); details: read-out: IC50 DRB1*01:01; note: competition with radiolabeled peptide (0.1–1 nM)
T1 construct: EBV transformed homozygous cell lines were used as sources of MHC molecules; endogenous in cells; host or cells: EBV transformed homozygous cell lines

DRB1*04:02 = DRB1*04:02 (Homo sapiens, UniProt P01903+P01911, A100E/A169T/F76Y/K127E/L162R/M171V/N62H/P40V/Q125Y/Q99D/R42H/S133A/S149N/S66Y/V209L/W38E); details: SE-, competition with radiolabeled peptide, two-day incubation, three or more independent experiments
DRB1*12:01 = DRB1*12:01 (Homo sapiens, UniProt P01903+P01911, A100R/A169T/D57E/D86V/F55L/H45Y/K41T/L162R/M171V/P40S/Q125H/Q178H/Q39Y/Q99D/R42G/S66L/T262R/V114A/V67L/W38E/Y59H/Y61H/Y89S); details: SE-, competition with radiolabeled peptide, two-day incubation, three or more independent experiments
DRB1*15:01 = target: T2, DRB1*15:01 (Homo sapiens, UniProt P01903+P01911); details: SE-, competition with radiolabeled peptide, two-day incubation, three or more independent experiments
T2 construct: EBV transformed homozygous cell lines were used as sources of MHC molecules; endogenous in cells; host or cells: EBV transformed homozygous cell lines

DRB1*07:01 = DRB1*07:01 (Homo sapiens, UniProt P01903+P01911, A100R/A102G/A103Q/D57E/D86V/E43K/F76Y/K127E/L162R/M171V/P40G/Q125H/Q99D/R33Q/R42Y/R54Q/S133A/S66F/T210M/V115G/Y107V/Y59L/Y89S); details: Other DR, competition with radiolabeled peptide, two-day incubation, three or more independent experiments
DRB5*01:01 = target: T3, DRB5*01:01 (Homo sapiens, UniProt P01903+Q30154); details: Other DR, competition with radiolabeled peptide, two-day incubation, three or more independent experiments
T3 construct: EBV transformed homozygous cell lines were used as sources of MHC molecules; endogenous in cells; host or cells: EBV transformed homozygous cell lines

HLA-DRB1*04:01 = target: T4, HLA-DRB1*04:01 (Homo sapiens, UniProt P01903+P01911, A100K/A169T/F76Y/I96L/K127E/L162R/M171V/N62H/P40V/Q125Y/R42H/S133A/S149N/S66Y/V115G/V209L/W38E); details: read-out: IC50 DRB1*04:01; note: competition with radiolabeled peptide (0.1–1 nM)
T4 construct: EBV transformed homozygous cell lines were used as sources of MHC molecules; endogenous in cells; host or cells: EBV transformed homozygous cell lines

DRB1*09:01 = DRB1*09:01 (Homo sapiens, UniProt P01903+P01911, A100R/A103E/D57H/D86V/F55Y/F60I/F76Y/I96F/K127E/L162R/M171V/P40D/Q125H/Q99R/R33Q/R42F/S133A/S66N/T210M/V115G/W38K/Y107V/Y59G/Y89S); details: Other DR, competition with radiolabeled peptide, two-day incubation, three or more independent experiments
DRB1*10:01 = DRB1*10:01 (Homo sapiens, UniProt P01903+P01911, A100R/A169T/D57E/F55L/F60V/F69Y/F76Y/I96L/L162R/M171V/P40V/Q260P/Q39E/Q99R/R195Q/R42F/S149N/S66Y/T210M/V115G/V67A/W38E/Y59R/Y61H); details: SE+, competition with radiolabeled peptide, two-day incubation, three or more independent experiments
DRB1*11:01 = DRB1*11:01 (Homo sapiens, UniProt P01903+P01911, A100R/A169T/A87E/I96F/K41T/L162R/M171V/P40S/Q125H/Q178H/Q39Y/Q99D/R42S/S66Y/T262R/V115G/W38E); details: SE-, competition with radiolabeled peptide, two-day incubation, three or more independent experiments
DPB1*04:01 = target: T5, DPB1*04:01 (Homo sapiens, UniProt P04440+P20036); details: DP; purified MHC, competition with radiolabeled peptide, two-day incubation, three or more independent experiments
T5 construct: EBV transformed homozygous cell lines were used as sources of MHC molecules; endogenous in cells; host or cells: EBV transformed homozygous cell lines
T5 sequence (P04440 30-258): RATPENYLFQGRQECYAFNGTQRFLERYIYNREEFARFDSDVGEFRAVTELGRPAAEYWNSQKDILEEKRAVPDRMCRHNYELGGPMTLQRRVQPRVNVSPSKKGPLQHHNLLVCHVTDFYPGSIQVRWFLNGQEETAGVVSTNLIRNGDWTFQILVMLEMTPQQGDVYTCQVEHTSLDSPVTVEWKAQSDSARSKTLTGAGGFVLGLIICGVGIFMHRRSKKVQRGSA
T5 sequence (P20036 29-260 partner): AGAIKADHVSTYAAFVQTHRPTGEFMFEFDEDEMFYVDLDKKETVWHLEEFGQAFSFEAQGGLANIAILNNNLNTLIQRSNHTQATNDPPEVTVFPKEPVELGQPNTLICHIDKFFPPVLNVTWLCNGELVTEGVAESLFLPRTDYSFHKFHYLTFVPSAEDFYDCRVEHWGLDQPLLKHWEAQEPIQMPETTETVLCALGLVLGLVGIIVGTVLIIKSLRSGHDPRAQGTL

DRB1*08:02 = DRB1*08:02 (Homo sapiens, UniProt P01903+P01911, A100R/A103L/A169T/F76Y/H45Y/I96F/K41T/L162R/M171V/P40S/Q125H/Q178H/Q39Y/Q99D/R218S/R42G/S66Y/V115G/W38E); details: Other DR, competition with radiolabeled peptide, two-day incubation, three or more independent experiments
DRB1*03:01 = DRB1*03:01 (Homo sapiens, UniProt P01903+P01911, A100K/A102G/A103R/A169T/F55Y/I96L/K41T/L162R/M171V/P40S/Q125H/Q178H/Q39Y/R42S/S66N/T106N/T262R/W38E/Y61H); details: Other DR, competition with radiolabeled peptide, two-day incubation, three or more independent experiments
DRB1*04:04 = DRB1*04:04 (Homo sapiens, UniProt P01903+P01911, A100R/A169T/F76Y/I96L/K127E/L162R/M171V/N62H/P40V/Q125Y/R42H/S133A/S149N/S66Y/V209L/W38E); details: SE+, competition with radiolabeled peptide, two-day incubation, three or more independent experiments
DRB3*01:01 = target: T6, DRB3*01:01 (Homo sapiens, UniProt P01903+P79483); details: Other DR, competition with radiolabeled peptide, two-day incubation, three or more independent experiments
T6 construct: EBV transformed homozygous cell lines were used as sources of MHC molecules; endogenous in cells; host or cells: EBV transformed homozygous cell lines

DRB1*04:05 = DRB1*04:05 (Homo sapiens, UniProt P01903+P01911, A100R/A169T/D86S/F76Y/I96L/K127E/L162R/M171V/N62H/P40V/Q125Y/R42H/S133A/S149N/S66Y/V115G/V209L/W38E); details: SE+, competition with radiolabeled peptide, two-day incubation, three or more independent experiments
DRB1*13:02 = DRB1*13:02 (Homo sapiens, UniProt P01903+P01911, A100E/A169T/K41T/L162R/M171V/P40S/Q125H/Q178H/Q39Y/Q99D/R42S/S66N/T262R/V115G/W38E/Y61H); details: SE-, competition with radiolabeled peptide, two-day incubation, three or more independent experiments
DRB4*01:01 = target: T7, DRB4*01:01 (Homo sapiens, UniProt P01903+P13762, G164S); details: Other DR, competition with radiolabeled peptide, two-day incubation, three or more independent experiments
T7 construct: EBV transformed homozygous cell lines were used as sources of MHC molecules; endogenous in cells; host or cells: EBV transformed homozygous cell lines

DRB3*02:02 = DRB3*02:02 (Homo sapiens, UniProt P01903+P79483, A212P/D57E/F66Y/L67A/R103Q/R218S/R40L/S89Y/T80R/V86D/Y55F/Y59H); details: Other DR, competition with radiolabeled peptide, two-day incubation, three or more independent experiments
DQB1*03:01 = DQB1*03:01 (Homo sapiens, UniProt P01909+P01920); details: DQ, competition with radiolabeled peptide, two-day incubation, three or more independent experiments
DQB1*03:01, sequence (P01920 33-261, other chains not shown): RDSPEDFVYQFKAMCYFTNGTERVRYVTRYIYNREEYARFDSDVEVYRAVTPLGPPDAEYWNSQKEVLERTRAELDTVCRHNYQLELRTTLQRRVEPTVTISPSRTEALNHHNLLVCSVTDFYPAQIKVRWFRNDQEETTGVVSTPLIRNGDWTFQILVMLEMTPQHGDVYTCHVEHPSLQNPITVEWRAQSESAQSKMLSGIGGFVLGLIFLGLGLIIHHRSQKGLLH

IC50 (DRB1*16:02) | IC50 (HLA-DRB1*01:01) | IC50 (DRB1*04:02) | IC50 (DRB1*12:01) | IC50 (DRB1*15:01) | IC50 (DRB1*07:01) | IC50 (DRB5*01:01) | IC50 (HLA-DRB1*04:01) | IC50 (DRB1*09:01) | IC50 (DRB1*10:01) | IC50 (DRB1*11:01) | IC50 (DPB1*04:01) | IC50 (DRB1*08:02) | IC50 (DRB1*03:01) | IC50 (DRB1*04:04) | IC50 (DRB3*01:01) | IC50 (DRB1*04:05) | IC50 (DRB1*13:02) | IC50 (DRB4*01:01) | IC50 (DRB3*02:02) | Sequence | also measured
20500 nM | 155 nM | 501 nM | 1050 nM | 1010 nM | 3030 nM | 16 nM | 713 nM | 730 nM | 643 nM | 520 nM | 26200 nM | 3960 nM | 530 nM | 565 nM | 8460 nM | 183 nM | 268 nM | 955 nM | 245 nM | VVLLVATEGRVRVNSAYQDK [Aggrecan 84–103 WT] | IC50 (DQB1*03:01): 229 nM
23100 nM | 81 nM | 118 nM | > 30000 nM | 1460 nM | 29600 nM | 8880 nM | 9.7 nM | 315 nM | 375 nM | 9860 nM | > 30000 nM | 1040 nM | 159 nM | 102 nM | 68 nM | 1770 nM | 3920 nM | 80 nM | 262 nM | LQYMRADQAAGGLR [Collagen II 1236–1249 WT] | IC50 (DQB1*03:01): 12800 nM
1080 nM | 3260 nM | 927 nM | 15900 nM | 4.1 nM | > 30000 nM | 2230 nM | 13100 nM | 1410 nM | 5170 nM | 11800 nM | > 30000 nM | 53 nM | 12200 nM | 206 nM | > 30000 nM | 3960 nM | 11400 nM | 2020 nM | 9090 nM | SAVRLRSSVPGVR [Vimentin 66–78 WT] | IC50 (DQB1*03:01): 2100 nM
